A value given as a limit tells only on which side of the number the result lay.

For the test, the target named is T1, BaF3 BRAF-KIAA1549 fusion cells (Homo sapiens, UniProt P15056).
T1 construct: The BRAF-KIAA1549 fusion mutant was subcloned into pMXs-IRES-Blasticidin (RTV-016, Cell Biolabs, San Diego, CA); No tag given; Q9HCM3 (UPF0606 protein KIAA1549)
Description: BaF3 BRAF-KIAA1549 fusion cell proliferation assay (CellTiterGlo, 96 hours). In kind it is cell-based. As to the method:
Retroviral Production: The BRAF-KIAA1549 fusion mutant was subcloned into pMXs-IRES-Blasticidin (RTV-016, Cell Biolabs, San Diego, CA). Retrovirus was produced by transfection of HEK 293T cells with the retroviral BRAF mutant expression vector pMXs-IRES-Blasticidin (RTV-016, Cell Biolabs), pCMV-Gag-Pol vector and pCMV-VSV-G-Envelope vector. Briefly, HEK 293T cells were plated in Poly-D-lysine coated 6-well plate (2.5×10^5 cells per well) and incubated overnight. The next day, retroviral plasmids (1 μg of BRAF-KIAA fusion mutant, 0.32 μg of pCMV-Gag-Pol and 0.165 μg pCMV-VSV-G) were mixed in 300 μL of Optimem (31985, Life Technologies). The mixture was incubated at room temperature for 5 minutes and then added to Optimem containing transfection reagent Lipofectamine (11668, Invitrogen) and incubated for 20 minutes. The mixture was then added dropwise to HEK 293T cells. The next day the medium was replaced with fresh culture medium and retrovirus was harvested at 24 hours.
Generation of BRAF-KIAA1549 fusion stable cell line: BaF3 cells were plated in V-bottom 96 well plate (COSTAR #3894) in 80 μL of RPMI/10% FBS and 0.01 ng/mL mouse IL-3, supplemented with 8 μg/mL polybrene (4×10^4 cells/well). Cells were transduced with 20 μL of BRAF-KIAA1549 fusion viral supernatant by centrifuging for 30 minutes at 1000 rpm. Cells were placed in a 37° C. incubator overnight. Next day 100 μL of RPMI/10% FBS and 0.01 ng/mL mouse IL-3 was added. After 24 hours, 100 μL of cells were transferred to a 24 well plate containing 900 μL of RPM/10% FBS and 15 μg/mL Blasticidin. Contents of the 24 well plate were sampled for cell viability via CellTiterGlo (Promega) over a 2-week period.
Assay for cell proliferation: BaF3 BRAF-KIAA1549 fusion cells were resuspended at 1.5×10^5 c/mL in RPMI containing 10% Heat Inactivated FBS, 1% L-glutamine and dispensed in duplicate (7×10^4 c/well) into 384 well plates. To determine the effect of compound on cell proliferation, BaF3 BRAF-KIAA1549 fusion cells were incubated for 96 hours in the presence of vehicle control (DMSO) or compound at varying concentrations. Inhibition of cell growth was determined by luminescent quantification (Envision by Perkin Elmer) of intracellular ATP content using CellTiterGlo (Promega), according to the protocol provided by the manufacturer. To determine the IC50 values, the vehicle-treated cells were normalized as viable cells and analyzed using the CDD Vault, Collaborative Drug Discovery, Burlingame, CA (the Levenberg-Marquardt algorithm; Levenberg, K., […]; Marquardt, D., 1963).
Tables A1 and A2 assign each compound a code for potency in the BaF3 BRAF-KIAA1549 fusion cell proliferation assay: A, B, C, or D. According to the code, A represents an IC50 value <20 nM; B represents an IC50 value ≥20 nM and <100 nM; C represents an IC50 value ≥100 nM and <500 nM; and D represents an IC50 value ≥500 nM.

T1 sequence (P15056 whole entry, change not shown, the tested form may be a part): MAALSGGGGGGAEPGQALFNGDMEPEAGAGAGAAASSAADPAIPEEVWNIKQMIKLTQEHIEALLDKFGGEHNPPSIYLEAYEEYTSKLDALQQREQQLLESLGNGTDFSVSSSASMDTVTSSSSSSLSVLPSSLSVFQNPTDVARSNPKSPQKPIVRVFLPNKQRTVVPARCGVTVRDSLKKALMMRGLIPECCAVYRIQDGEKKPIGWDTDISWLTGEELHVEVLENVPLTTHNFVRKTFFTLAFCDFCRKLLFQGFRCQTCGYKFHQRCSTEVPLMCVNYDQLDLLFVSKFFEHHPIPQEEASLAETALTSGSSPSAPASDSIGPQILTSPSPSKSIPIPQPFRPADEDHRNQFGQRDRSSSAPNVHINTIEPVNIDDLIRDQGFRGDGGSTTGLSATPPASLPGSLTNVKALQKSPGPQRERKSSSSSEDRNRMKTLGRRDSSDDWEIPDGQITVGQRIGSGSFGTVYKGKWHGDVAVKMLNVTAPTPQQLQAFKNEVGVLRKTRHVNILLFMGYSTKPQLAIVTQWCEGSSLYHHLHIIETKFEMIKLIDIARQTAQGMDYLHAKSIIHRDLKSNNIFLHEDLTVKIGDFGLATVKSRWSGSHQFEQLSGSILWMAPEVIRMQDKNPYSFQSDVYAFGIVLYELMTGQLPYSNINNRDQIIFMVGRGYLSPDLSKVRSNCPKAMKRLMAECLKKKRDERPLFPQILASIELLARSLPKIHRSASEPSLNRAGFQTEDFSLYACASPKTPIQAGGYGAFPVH

By GI50 is commonly meant the concentration at which growth is held to half of that of the control. Take `CNc1cc2ncc(-c3cc(NC(=O)C[C@@H]4C[C@H](C(F)(F)F)CCO4)ccc3C)cc2cn1` (single isomer, unassigned) [Compound 7, N-(4-Methyl-3-(7-(methylamino)-1,6-naphthyridin-3-yl)phenyl)-2-(4-(trifluoromethyl)tetrahydro-2H-pyran-2-yl)acetamide]: the GI50 (Table A1) was < 20 nM. On the same count and under the same terms, for `CNc1cc2ncc(-c3cc(NC(=O)C[C@@H]4C[C@H](C(F)(F)F)CCO4)cnc3C)cc2cn1` (single isomer, unassigned) [Compound 35] the value was 20 to 100 nM.

In turn, `CNc1cc2ncc(-c3cc(NC(=O)C[C@H]4C[C@H](C(F)(F)F)CCO4)cnc3C)cc2cn1` (single isomer, unassigned) [Compound 36] returned a GI50 (Table A1) of 100 to 500 nM. Consider `CNc1cc2ncc(-c3cc(NC(=O)[C@H](C)n4cnc(C(F)(F)F)n4)ccc3C)cc2cn1` (single isomer, unassigned) [Compound 68], for which the GI50 (Table A1) lay within 20 to 100 nM. On the same count and under the same terms, the value for `CNc1cc2ncc(-c3cc(NC(=O)[C@@H](C)n4cnc(C(F)(F)F)n4)ccc3C)cc2cn1` (single isomer, unassigned) [Compound 69] was 100 to 500 nM.

Consider `CNc1cc2ncc(-c3cc(NC(=O)c4cccc5c4CCC[C@@H]5O)cnc3C)cc2cn1` (single isomer, unassigned) [Compound 207], for which, for the setting “Table A2”, the GI50 was ≥ 500 nM. The same measure, in the same setting: for `CNc1cc2ncc(-c3cc(NC(=O)c4cccc5c4CCC[C@H]5O)cnc3C)cc2cn1` (single isomer, unassigned) [Compound 208] the value was ≥ 500 nM; for `CNc1cc2ncc(-c3cc(NC(=O)c4cnc5n4C[C@H](C)CC5)ccc3C)cc2cn1` (single isomer, unassigned) [Compound 230], 20 to 100 nM; for `CNc1cc2ncc(-c3cc(NC(=O)c4cnc5n4C[C@@H](C)CC5)ccc3C)cc2cn1` (single isomer, unassigned) [Compound 231], 20 to 100 nM. Still for that read-out and setting: for `CNc1cc2ncc(-c3cc(NC(=O)c4noc5c4C[C@@H](C)CC5)ccc3C)cc2cn1` (single isomer, unassigned) [Compound 236] the value was 20 to 100 nM. Same read-out and setting: for `CNc1cc2ncc(-c3cc(NC(=O)c4noc5c4C[C@H](C)CC5)ccc3C)cc2cn1` (single isomer, unassigned) [Compound 237] the value was 20 to 100 nM. For the compound `CNc1cc2ncc(-c3cc(NC(=O)c4cc([C@@H](O)C(C)(F)F)ccn4)cnc3C)cc2cn1` (single isomer, unassigned) [Compound 248], for the setting “Table A2”, the GI50 lay within 20 to 100 nM.

In turn, `CNc1cc2ncc(-c3cc(NC(=O)c4cc([C@H](O)C(C)(F)F)ccn4)cnc3C)cc2cn1` (single isomer, unassigned) [Compound 249] displayed a GI50 (Table A2) of 20 to 100 nM. On the same count and under the same terms, the value for `CNc1cc2ncc(-c3cc(NC(=O)c4cnc5n4C[C@@H](C)CC5)cnc3C)cc2cn1` (single isomer, unassigned) [Compound 258] was 20 to 100 nM; that for `CNc1cc2ncc(-c3cc(NC(=O)c4cnc5n4C[C@H](C)CC5)cnc3C)cc2cn1` (single isomer, unassigned) [Compound 259] was 20 to 100 nM; that for `CNc1cc2ncc(-c3cc(NC(=O)N4CC[C@@H](CC(F)(F)F)C4)ccc3C)cc2cn1` (single isomer, unassigned) [Compound 267] was < 20 nM. For the compound `CNc1cc2ncc(-c3cc(NC(=O)c4cc(C(F)(F)F)ccn4)ccc3C)cc2cn1` [Compound 1, N-(4-methyl-3-(7-(methylamino)-1,6-naphthyridin-3-yl)phenyl)-4-(trifluoromethyl)picolinamide], the GI50 (Table A1) is < 20 nM.

`CNc1cc2ncc(-c3cc(NC(=O)c4ccnc(C(F)(F)F)c4)ccc3C)cc2cn1` [Compound 2, N-(4-methyl-3-(7-(methylamino)-1,6-naphthyridin-3-yl)phenyl)-2-(trifluoromethyl)isonicotinamide] registered a GI50 (Table A1) of 20 to 100 nM.

`CNc1cc2ncc(-c3cc(NC(=O)c4cncc(C(F)(F)F)c4)ccc3C)cc2cn1` [Compound 3, N-(4-methyl-3-(7-(methylamino)-1,6-naphthyridin-3-yl)phenyl)-5-(trifluoromethyl)nicotinamide]: where the note is “Table A1”, the GI50 is < 20 nM. Regarding `CNc1cc2ncc(-c3cc(NC(=O)c4cccc(N(C)C)c4)ccc3C)cc2cn1` [Compound 4, 3-(Dimethylamino)-N-(4-methyl-3-(7-(methylamino)-1,6-naphthyridin-3-yl)phenyl)benzamide], where the note is “Table A1”, the GI50 is < 20 nM. On the same count and under the same terms, for `CNc1cc2ncc(-c3cc(NC(=O)c4cc(C(F)(F)F)c(C)cn4)ccc3C)cc2cn1` [Compound 5, 5-Methyl-N-(4-methyl-3-(7-(methylamino)-1,6-naphthyridin-3-yl)phenyl)-4-(trifluoromethyl)picolinamide] the value was 20 to 100 nM. Same read-out and setting: for `CNc1cc2ncc(-c3cc(NC(=O)c4nccc(C(F)(F)F)c4Cl)ccc3C)cc2cn1` [Compound 6, 3-Chloro-N-(4-methyl-3-(7-(methylamino)-1,6-naphthyridin-3-yl)phenyl)-4-(trifluoromethyl)picolinamide] the value was < 20 nM; for `CNc1cc2ncc(-c3cc(NC(=O)c4ccnc(C(F)F)c4)ccc3C)cc2cn1` [Compound 8, 2-(Difluoromethyl)-N-(4-methyl-3-(7-(methylamino)-1,6-naphthyridin-3-yl)phenyl)isonicotinamide], 20 to 100 nM; for `CNc1cc2ncc(-c3cc(NC(=O)c4ccnc(C(C)(F)F)c4)ccc3C)cc2cn1` [Compound 9, 2-(1,1-difluoroethyl)-N-(4-methyl-3-(7-(methylamino)-1,6-naphthyridin-3-yl)phenyl)isonicotinamide], < 20 nM. As for `CNc1cc2ncc(-c3cc(NC(=O)c4ccnc(C(C)(C)F)c4)ccc3C)cc2cn1` [Compound 10, 2-(2-Fluoropropan-2-yl)-N-(4-methyl-3-(7-(methylamino)-1,6-naphthyridin-3-yl)phenyl)isonicotinamide], under “Table A1”, the GI50 was < 20 nM. Still for that read-out and setting: the value for `CNc1cc2ncc(-c3cc(NC(=O)c4cc(C(F)F)ccn4)ccc3C)cc2cn1` [Compound 11, 4-(Difluoromethyl)-N-(4-methyl-3-(7-(methylamino)-1,6-naphthyridin-3-yl)phenyl)picolinamide] was 20 to 100 nM; that for `CNc1cc2ncc(-c3cc(NC(=O)c4cc(C(C)(F)F)ccn4)ccc3C)cc2cn1` [Compound 12, 4-(1,1-Difluoroethyl)-N-(4-methyl-3-(7-(methylamino)-1,6-naphthyridin-3-yl)phenyl)picolinamide] was 20 to 100 nM. The same measure, in the same setting: the value for `CNc1cc2ncc(-c3cc(NC(=O)c4cc(C(C)(C)F)ccn4)ccc3C)cc2cn1` [Compound 13, 4-(2-Fluoropropan-2-yl)-N-(4-methyl-3-(7-(methylamino)-1,6-naphthyridin-3-yl)phenyl)picolinamide] was 100 to 500 nM. Still for that read-out and setting: the value for `CNc1cc2ncc(-c3cc(NC(=O)c4cc(C(C)(C)C#N)ccn4)ccc3C)cc2cn1` [Compound 14, 4-(2-Cyanopropan-2-yl)-N-(4-methyl-3-(7-(methylamino)-1,6-naphthyridin-3-yl)phenyl)picolinamide] was < 20 nM; that for `CNc1cc2ncc(-c3cc(NC(=O)c4cc(C5(C#N)CCC5)ccn4)ccc3C)cc2cn1` [Compound 15, 4-(1-Cyanocyclobutyl)-N-(4-methyl-3-(7-(methylamino)-1,6-naphthyridin-3-yl)phenyl)picolinamide] was 20 to 100 nM.

The values above are taken from US20250017914A1, “6-AZA-QUINOLINE DERIVATIVES AND RELATED USES” (Black Diamond Therapeutics, Inc., priority 2021, published 2025).
